# Experimental data published in patent US11491122B2, “Use of a combination of Adelmidrol and hyaluronic acid in the treatment of pain caused by osteoarthritis and epithelial dysfunctions” (Epitech Group S.p.A., priority 2014, dated 2022).
# Experiments:
# [1] = cited from earlier work
# TNF-α = experiment: Osteoarthritis induced by sodium monoiodoacetate: TNF-α in the synovial fluid (ELISA); type: in vivo, rat; settings: intra-articular Adelmidrol, MIA osteoarthritic rats
# Method: (§1) The experiments were conducted using adult male rats of the Wistar strain (weight 200-250 grams) supplied by Harlan Italy, put in enclosures for a week in standard dietary and environmental conditions (temperature 21±1° C., humidity 60±10%, light 12 hours a day and water and food ad libitum) before being used in the experiments. […] MIA acts locally by inhibiting glycolysis, destroying the metabolism of chondrocytes and producing cartilage degeneration. At the time of the induction of osteoarthritis, MIA was dissolved in sterile saline. Before carrying out the intra-articular administration, the rats were anesthetized with pentobarbital sodium dissolved in saline at the dose of 60 mg/kg, in an administration volume of 0.2 ml/hg intraperitoneally (i.p.). The animals that received the MIA injection in their right knee represent the osteoarthritic (OA) group. […]
# The determination of TNF-α levels in the synovial fluid was made using an ELISA (Enzyme Linked Immuno-Sorbent-Assay) immunoenzymatic assay using a commercial kit from Biosource International Inc. The method uses a procedure in which the antigen is trapped between two layers of antibodies and for this reason it is called an ELISA sandwich. […] Following the enzymatic reaction, a product is generated whose staining intensity is measured spectrophotometrically and is directly proportional to the concentration of TNF-α in the samples. […]
# [2] = tested on: patients with Bladder Pain Syndrome (BPS); experiment: Intravesical instillation in patients with Painful Bladder Syndrome (BPS); type: in vivo, human; settings: 7 female BPS patients
# Method: A sterile solution containing 2% Adelmidrol and 0.1% hyaluronic acid sodium salt was instilled into the bladder of no. 7 female patients through catheter after the complete emptying of the bladder itself. […] Most of the times, the patients had comorbidity with other pelvic diseases (vulvar vestibulitis 4/7; IBS (irritable bowel syndrome) 2/7; Fibromyalgia Syndrome 1/7, Recurrent Urinary Tract Infections (RUTI) 3/7).
# Treatments were carried out as attack therapy (one intravesical instillation per week for 8 weeks), followed by maintenance therapy (one instillation per month for 6 months).
# Using a dedicated diary, the frequency of urination (measured as the number of urinations in 12 hours), both during the day and at night, and the discomfort with bladder full were controlled, analyzing the pain, the feeling of weight and the burning in the pelvic area (all three parameters were measured by means of numerical scale VAS, before treatment, at the end of the attack therapy and at the end of the maintenance therapy).
# NAAA = biological target: T1, NAAA (Rattus norvegicus, UniProt Q5KTC7); experiment: Maximum reduction of the activity of the PEA-degrading enzyme NAAA, rat brain membrane homogenates; type: biochemical
# T1 construct: was also measured using homogenates rat brain membranes; from tissue; host or cells: rat brain membrane homogenates
# T1 sequence (Q5KTC7 131-362 limits assumed): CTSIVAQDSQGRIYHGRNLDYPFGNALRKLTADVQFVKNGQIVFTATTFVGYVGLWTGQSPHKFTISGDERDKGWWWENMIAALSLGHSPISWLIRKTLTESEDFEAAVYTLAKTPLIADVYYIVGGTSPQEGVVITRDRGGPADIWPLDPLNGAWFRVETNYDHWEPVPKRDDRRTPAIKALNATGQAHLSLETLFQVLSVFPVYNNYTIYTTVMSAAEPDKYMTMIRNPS
# T1 sequence (Q5KTC7 34-130 limits assumed): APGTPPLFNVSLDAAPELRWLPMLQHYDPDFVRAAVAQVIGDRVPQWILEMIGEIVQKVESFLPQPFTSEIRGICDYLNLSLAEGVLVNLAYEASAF
# Method: (§2) The maximum reduction of the activity of the palmitoylethanolamide-degrading enzymes (NAAA and FAAH) was also measured using homogenates rat brain membranes [Ueda N et al Chem Phys Lipids. 2000 November; 108(1-2):107-21; Tsuboi K. Et al J Biol Chem. 2005 March 25; 280(12):11082-92].
# [3] = experimental animals, oral administration; cited from earlier work
# HaCaT cells = experiment: Endogenous levels of AEA, 2-AG, PEA and OEA in HaCaT cells stimulated with Adelmidrol (LC-APCI-MS); type: cell-based, human; settings: Adelmidrol 10 μM, 24 hours
# Method: Cultured human keratinocytes, HaCaT, were grown in DMEM (Dulbecco's Modified Eagle Medium) supplemented with glutamine (2 mM), penicillin (400 U/ml), streptomycin ([…]), 10% FBS (Fetal Bovine Serum), in the presence of 5% CO2 and at 37° C. Thereafter, cells plated in 6-well multi-wells (9×10^5/well), once 70% confluence had been reached, were stimulated with Adelmidrol, 10 μM, or carrier (Ctrl, 0.05% methanol) for 24 hours in the presence of 5% CO2 at 37° C. After 24 hours, the cells and the surnatants were homogenized in 5 vol. of a chloroform/methanol TRIS-HCl 50 mM pH 7.4 (2:1:1) solution containing 10 pmol of [^2H]8anandamide (AEA) and 50 pmol of [^2H]52-arachidonoylglycerol (2-AG), [^2H]4palmitoylethanolamide (PEA) and [^2H]2oleoylethanolamide (OEA) (Bisogno et al., 1997). The organic-lipidic phase obtained from the four extractions with chloroform was subjected to purification by silica column chromatography, eluted by increasing concentrations of methanol in chloroform. The chloroform/methanol 90:10 fraction containing AEA, 2-AG, PEA and OEA was analyzed by liquid chromatography coupled to mass spectrometry using chemical ionization at atmospheric pressure (LC-APCI-MS) (Marsicano et al., 2002). The equipment used includes a Shimadzu HPLC (LC-10ADVP) coupled with a Shimadzu spectrometer (LCMS-2010) via a Shimadzu APCI interface. The ionization source temperature is 400° C. and a Phenomenex reverse phase HPLC column (C-18, 5 microns, 150×4.6 mm) is used. The mobile phase, consisting of a mixture of methanol/water/acetic acid (85/15/0.1%), passes through the column at a rate of 1 ml/min. The mass spectrum determination is carried out according to the selected ion monitoring (SIM) [Di Marzo et al. Nature 2001; 410:822-825]. Selected ions correspond to mass/charge values (m/z) of 356 and 348 (molecular ions of deuterated and non-deuterated AEA), 384.35 and 379.35 (molecular ions of deuterated and non-deuterated 2-AG), 304 and 300 (molecular ions of deuterated and non-deuterated PEA), 328 and 326 (molecular ions of deuterated and non-deuterated OEA). The quantity expressed as pmol/mg of lipid extract were compared using ANOVA followed by the Student-Newman-Keuls test.
# FAAH = biological target: T2, FAAH (Rattus norvegicus, UniProt P97612); experiment: Maximum reduction of the activity of the PEA-degrading enzyme FAAH, rat brain membrane homogenates; type: biochemical
# T2 construct: was also measured using homogenates rat brain membranes; from tissue; host or cells: rat brain membrane homogenates
# T2 sequence (P97612 1-579): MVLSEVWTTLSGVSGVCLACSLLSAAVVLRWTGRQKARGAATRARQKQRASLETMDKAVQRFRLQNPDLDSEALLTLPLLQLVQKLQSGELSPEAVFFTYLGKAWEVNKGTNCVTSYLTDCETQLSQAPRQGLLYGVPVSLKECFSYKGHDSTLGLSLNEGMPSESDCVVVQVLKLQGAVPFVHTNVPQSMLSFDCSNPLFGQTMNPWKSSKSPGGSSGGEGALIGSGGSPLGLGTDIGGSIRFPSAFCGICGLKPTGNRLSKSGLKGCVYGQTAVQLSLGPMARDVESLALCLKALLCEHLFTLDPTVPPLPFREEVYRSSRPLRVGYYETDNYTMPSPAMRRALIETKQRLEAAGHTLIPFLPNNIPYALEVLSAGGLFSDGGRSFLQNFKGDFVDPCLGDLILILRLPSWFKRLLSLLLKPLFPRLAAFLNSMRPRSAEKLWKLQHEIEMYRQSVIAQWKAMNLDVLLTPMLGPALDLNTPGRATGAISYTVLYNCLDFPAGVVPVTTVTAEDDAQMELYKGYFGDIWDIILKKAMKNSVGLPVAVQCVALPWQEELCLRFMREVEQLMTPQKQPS
# Method: as §2
# [4] = tested on: knee osteoarthritis induced by monosodium iodoacetate (MIA); experiment: Osteoarthritis induced by sodium monoiodoacetate: knee edema by digital caliper; type: in vivo, rat; settings: intra-articular Adelmidrol 1.5, 15 and 150 μg/injection, days 1, 8, 15; dose-dependent, evident at all analyzed times
# Method: as §1, with “(i.p.).” for “(i.p.). The animals that received the MIA injection in their right knee represent the osteoarthritic (OA) group.”
# In order to evaluate the formation of the edema in the right knee of the animals after MIA injection, a digital manual slide caliper (measuring capacity 0-150 mm; resolution: 0.01 mm; ROHS Compliant Electronic Digital Caliper—2 Biological Instruments SNC, Italy) was used. […] The edema was calculated as the difference between the […] of the right knee and left knee. […]
# The various parameters are measured at different times in relation to the parameter itself (e.g. inflammatory parameters are evaluated only in the first week since the MIA, pain is always evaluated before and 60 min. after the administration of Adelmidrol).
smiles,measurement,setting,value
"O=C(CCCCCCCC(=O)NCCO)NCCO [Adelmidrol, N,N′-Bis(2-hydroxyethyl)nonandiamide]",solubility in lipids,[1],good solubility in lipids
same,solubility in water,[1],high solubility in water
same,levels of TNF-α in the synovial fluid,TNF-α,reduction
same,"all the parameters evaluated (urination frequency, pain, weight, burning) after treatment",[2],marked improvement
same,inhibition of the activity of NAAA (in words),NAAA,does not inhibit
same,inhibition at 50 µM,"NAAA; Treatment with Adelmidrol 50 μM, Control 11.43 ± 1.72%, read-out: Maximum inhibition of the enzymatic activity (expressed as IC50), Enzyme NAAA",11.3 ± 2.26%
same,LD50,[3],2-3 g/kg body weight
same,levels of 2-AG in HaCaT cells,HaCaT cells; vs Ctrl,No significant variation
same,levels of AEA in HaCaT cells,HaCaT cells; vs Ctrl,No significant variation
same,levels of OEA in HaCaT cells,HaCaT cells; vs Ctrl,No significant variation
same,levels of PEA in HaCaT cells,"HaCaT cells; basal values 31.6±5.6, n=6, P<0.0001",66.4±9.6 pmol/mg of lipid extract
same,inhibition of the activity of FAAH (in words),FAAH,does not inhibit
same,inhibition at 50 µM,"FAAH; Treatment with Adelmidrol 50 μM, Control 21.22 ± 3.18%, read-out: Maximum inhibition of the enzymatic activity (expressed as IC50), Enzyme FAAH",20.1 ± 4.12%
same,anti-inflammatory effect (knee edema),[4],strong anti-inflammatory effect
